From ChEMBL document CHEMBL1201862, “PubChem BioAssay data set” (2004)
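How tested: cells in 96-well plates exposed to compound for 48 hours at five concentrations. At the GI50, growth is halved.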 Activity calls are given as the source filed them. Rule as the data show it: active = GI50 up to about 1.1 µM and inactive = higher.

Experiments:
Test in all cases: NCI anticancer screen, dose series, 48 h
SK-MEL-2 = tested on: SK-MEL-2
RPMI-8226 = tested on: RPMI-8226
LOX IMVI = tested on: LOX IMVI
SF-268 = tested on: SF-268
UACC-62 = tested on: UACC-62
OVCAR-3 = tested on: OVCAR-3
PC-3 = tested on: PC-3
A549 = tested on: A549
MCF7 = tested on: MCF7
MDA-MB-231 = tested on: MDA-MB-231
SK-MEL-5 = tested on: SK-MEL-5
U-251 = tested on: U-251
CAKI-1 = tested on: CAKI-1
HCC 2998 = tested on: HCC 2998
T47D = tested on: T47D
NCI-H23 = tested on: NCI-H23
SK-MEL-28 = tested on: SK-MEL-28
COLO 205 = tested on: COLO 205
HCT-15 = tested on: HCT-15

Structure (SMILES)	GI50 (SK-MEL-2)	GI50 (RPMI-8226)	GI50 (LOX IMVI)	GI50 (SF-268)	GI50 (UACC-62)	GI50 (OVCAR-3)	GI50 (PC-3)	GI50 (A549)	GI50 (MCF7)	GI50 (MDA-MB-231)	GI50 (SK-MEL-5)	GI50 (U-251)	GI50 (CAKI-1)	GI50 (HCC 2998)	GI50 (T47D)	GI50 (NCI-H23)	GI50 (SK-MEL-28)	GI50 (COLO 205)	GI50 (HCT-15)
CC1CC(C#N)=C2NCCN2C1=O (stereo not drawn)	> 100 µM (inactive)	> 100 µM (inactive)	30.8 µM (inactive)	> 100 µM (inactive)	> 10 µM (inactive)	> 100 µM (inactive)	> 100 µM (inactive)	> 100 µM (inactive)	20.8 µM (inactive)	> 100 µM (inactive)	15.2 µM (inactive)	> 100 µM (inactive)	51.9 µM (inactive)	> 100 µM (inactive)	> 100 µM (inactive)	> 100 µM (inactive)	> 100 µM (inactive)	22.1 µM (inactive)	> 100 µM
CCC1(CC)C(=O)N(C(=O)c2ccc(C)cc2)N(C(=O)c2ccc(C)cc2)C1=O	> 75 µM (inactive)	35.4 µM (inactive)	33.2 µM (inactive)	27.7 µM (inactive)	> 75 µM (inactive)	17.7 µM (inactive)	59.6 µM (inactive)	> 75 µM (inactive)	45.5 µM (inactive)	> 75 µM (inactive)	> 75 µM (inactive)	35 µM (inactive)	52 µM (inactive)	> 75 µM (inactive)	36.1 µM (inactive)	27.2 µM (inactive)	> 75 µM (inactive)	> 75 µM (inactive)	32 µM
NC1=Nc2ccccc2Sc2nnc(-c3ccc(Cl)cc3)n21	> 100 µM (inactive)	87.3 µM (inactive)	7.03 µM (inactive)	19.5 µM (inactive)	61.4 µM (inactive)	> 100 µM (inactive)	16.5 µM (inactive)	49.3 µM (inactive)	> 100 µM (inactive)	21.5 µM (inactive)	68.5 µM (inactive)	13.7 µM (inactive)	72.4 µM (inactive)	> 100 µM (inactive)	> 100 µM (inactive)	> 100 µM (inactive)	> 100 µM (inactive)	76.7 µM (inactive)	7.16 µM
CC1(C)OC1COc1c2occc2cc2ccc(=O)oc12 (stereo not drawn)	> 100 µM (inactive)	39.2 µM (inactive)	> 100 µM (inactive)	> 100 µM (inactive)	33.1 µM (inactive)	> 100 µM (inactive)	> 100 µM (inactive)	67.6 µM (inactive)	> 100 µM (inactive)	> 100 µM (inactive)	86.3 µM (inactive)	> 100 µM (inactive)	> 100 µM (inactive)	> 100 µM (inactive)	79.1 µM (inactive)	> 100 µM (inactive)	> 100 µM (inactive)	> 100 µM (inactive)	> 100 µM
COc1c(O)ccc2c1CN1CCc3cc4c(cc3C1C2)OCO4 (stereo not drawn)	30.6 µM (inactive)	32.4 µM (inactive)	22.8 µM (inactive)	37 µM (inactive)	27.5 µM (inactive)	26.4 µM (inactive)	23.4 µM (inactive)	32.5 µM (inactive)	21.6 µM (inactive)	29.3 µM (inactive)	35 µM (inactive)	29.6 µM (inactive)	38.3 µM (inactive)	31.6 µM (inactive)	20.9 µM (inactive)	36.2 µM (inactive)	45.1 µM (inactive)	36.1 µM (inactive)	21.6 µM
CSC(=S)Nc1cccc(C)n1	> 100 µM (inactive)	> 100 µM (inactive)	> 100 µM (inactive)	> 100 µM (inactive)	> 100 µM (inactive)	52.4 µM (inactive)	> 100 µM (inactive)	> 100 µM (inactive)	> 100 µM (inactive)	> 100 µM (inactive)	76.6 µM (inactive)	> 100 µM (inactive)	> 100 µM (inactive)	> 100 µM (inactive)	> 100 µM (inactive)	> 100 µM (inactive)	> 100 µM (inactive)	> 100 µM (inactive)	> 100 µM
C[N+]12C=CC=C1C(N1CCCC1)c1scc(-c3ccc(Br)cc3)c12 (stereo not drawn)	6.18 µM (inactive)	3.01 µM (inactive)	25.5 µM (inactive)	3.15 µM (inactive)	19.2 µM (inactive)	6.38 µM (inactive)	21 µM (inactive)	74.1 µM (inactive)	22.9 µM (inactive)	23.9 µM (inactive)	4.68 µM (inactive)	2.09 µM (inactive)	> 62.5 µM (inactive)	12.4 µM (inactive)	4.61 µM (inactive)	3.49 µM (inactive)	19 µM (inactive)	12.5 µM (inactive)	> 90.8 µM
